Reference: patent US9738902B2, “Modified PYR/PYL receptors activated by ligands” (priority 2013, dated 2017)

How the values were obtained:
[1] = test system: 35S::GFP-PYR1 expressing transgenic plants; assay: thermal imaging of leaf temperature; type: in vivo, Arabidopsis; conditions: 35S::GFP-PYR1, 2 μM, 24 hours
Procedure: (§1) To investigate if the system is sufficient to control ABA responses in vegetative tissues, we generated homozygous transgenic lines for two 35S-driven lines (E15 and E16) and 2 RBCS-driven lines (F29 and F34). These materials were grown along side wild type plants and a previously constructed 35S::GFP-PYR1 over expression line (Park et al., 2009). These plants were grown until three weeks old and then treated with a solution containing either 2 μM mandipropamid and 0.02% Silwet or a mock treatment containing 0.02% Silwet and the mandipropamid carrier solvent (DMSO). 24 hours after treatment, the leaf temperatures were examined using a thermal imaging camera. It is well known that ABA-induced guard cell closure reduces transpiration, which leads to increases in leaf temperatures. […] Since guard cell aperture is the primary determinant of transpiration rates, thermal imaging is a useful way to indirectly infer relative transpiration rates and guard cell aperture at the whole plant level. As is shown in FIG. 3, mandipropamid treatment of homozygous PYR1^MANDI expressing transgenic plants leads to large changes in leaf temperature (˜2° C. increase) within 24 hours of treatment.

wild type plants = assay: thermal imaging of leaf temperature; type: in vivo, Arabidopsis; conditions: 2 μM, 24 hours
Procedure: as §1

[2] = molecular target: T1, 6×-His-GFP-PYR1^MANDI and GFP-HAB1 (Arabidopsis thaliana, UniProt O49686, F108A/F159L/K59R/S122G/V81I/Y58H); assay: co-precipitation after transient co-expression in leaves; type: in vivo, Nicotiana benthamiana; conditions: 50 μM mandipropamid, 20 hours
T1 construct: expressed in transfected cells; host or cells: Nicotiana benthamiana leaves, Agrobacterium tumefaciens GV3101 infiltration
T1 sequence (O49686 whole entry Y58H/K59R/V81I/F108A/S122G/F159L): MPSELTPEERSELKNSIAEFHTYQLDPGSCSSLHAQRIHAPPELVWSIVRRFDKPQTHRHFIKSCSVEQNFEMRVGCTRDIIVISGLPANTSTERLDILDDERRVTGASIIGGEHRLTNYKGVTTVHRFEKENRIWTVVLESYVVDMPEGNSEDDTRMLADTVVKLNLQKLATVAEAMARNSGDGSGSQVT
T1 sequence (Q9CAJ0 23-511 partner): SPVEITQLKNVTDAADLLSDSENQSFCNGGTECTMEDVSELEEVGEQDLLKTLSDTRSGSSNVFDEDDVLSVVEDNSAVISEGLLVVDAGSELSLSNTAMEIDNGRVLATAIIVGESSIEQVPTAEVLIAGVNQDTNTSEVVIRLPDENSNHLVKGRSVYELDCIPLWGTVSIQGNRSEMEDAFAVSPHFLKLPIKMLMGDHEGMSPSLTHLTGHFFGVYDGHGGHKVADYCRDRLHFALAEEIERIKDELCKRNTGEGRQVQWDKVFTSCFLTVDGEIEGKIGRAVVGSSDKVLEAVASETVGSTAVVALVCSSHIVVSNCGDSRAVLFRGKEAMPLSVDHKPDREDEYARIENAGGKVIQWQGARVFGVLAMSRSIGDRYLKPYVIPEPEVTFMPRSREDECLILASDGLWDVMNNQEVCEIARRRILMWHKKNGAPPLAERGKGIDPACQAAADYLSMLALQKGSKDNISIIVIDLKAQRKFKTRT
Excerpt: We therefore investigated if the mandipropamid promoted interaction between PYR1^MANDI and the PP2C HAB1 could be observed using similar experiments. To conduct these experiments PYR1^MANDI was cloned as a 6×-His-GFP fusion protein in the vector pEGAD (Cutler et al., 2000). HAB1 was cloned as a GFP fusion protein in the vector pEGAD. Both constructs were transformed into Agrobacterium tumefaciens (GV3101) and utilized in transient expression experiments. The Agrobacterium strains harboring the receptor, PP2C and the silencing suppressor p19 were mixed together in ratios corresponding to 0.1, 1.0 and 0.5 final OD600 units respectively. The mixture was infiltrated into two separate N. benthamiana leaves and 2 days later the leaves were treated with either 50 μM mandipropamid or mock solutions made in water containing 0.02% Silwet L-77. 20 hours later the leaves were homogenized in liquid nitrogen, re-suspended in an extraction buffer composed of 1×TBS, 0.1% NP-40, 1 mM DTT, 10% glycerol, and 1× plant protease inhibitor cocktail (Sigma, USA) and clarified by centrifugation. […] Both PYR1^MANDI and HAB1 were expressed as GFP fusion proteins and could therefore be detected with an anti-GFP antibody. The blots were probed with an anti-GFP monoclonal primary antibody and detected using an anti-mouse IgG-HP sheep secondary antibody using ECL (Amersham, USA) development.

[3] = test system: MDP1 and MDP2 transgenic lines (35S::PYR1^MANDI); assay: thermal imaging of leaf temperature; type: in vivo, Arabidopsis; conditions: 1 μM mandipropamid, 24 hours after first application
PYR1 K59R F108L = molecular target: T2, PYR1 K59R F108L (Arabidopsis thaliana, UniProt O49686, F108L/K59R); assay: Y2H Pocket Library Screen (HAB1, X-gal); type: cell-based
T2 construct: expressed in transfected cells; host or cells: S. cerevisiae Y190 yeast two-hybrid reporter strain
T2 sequence (O49686 whole entry K59R/F108L): as the sequence (O49686 whole entry Y58H/K59R/V81I/F108A/S122G/F159L) above, with H58Y, I81V, A108L, G122S, L159F counted along it
T2 sequence (Q9CAJ0 23-511 partner): as the sequence (Q9CAJ0 23-511 partner) above
Outline: (§2)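 Each mutant receptor was expressed with HAB1 in the Y190 reporter strain. Cells were spotted onto SD agar minus Leu and Trp supplemented with a 100 μM test compound. Plates incubated two days at 30° C, then colonies were lysed with chloroform and stained with X-gal.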

PYR1 K59R F108C = molecular target: T3, PYR1 K59R F108C (Arabidopsis thaliana, UniProt O49686, F108C/K59R); assay: Y2H Pocket Library Screen (HAB1, X-gal); type: cell-based
T3 construct: expressed in transfected cells; host or cells: S. cerevisiae Y190 yeast two-hybrid reporter strain
T3 sequence (O49686 whole entry K59R/F108C): as the sequence (O49686 whole entry Y58H/K59R/V81I/F108A/S122G/F159L) above, with H58Y, I81V, A108C, G122S, L159F counted along it
T3 sequence (Q9CAJ0 23-511 partner): as the sequence (Q9CAJ0 23-511 partner) above
Outline: as §2

PYR1 K59R F108S = molecular target: T4, PYR1 K59R F108S (Arabidopsis thaliana, UniProt O49686, F108S/K59R); assay: Y2H Pocket Library Screen (HAB1, X-gal); type: cell-based
T4 construct: expressed in transfected cells; host or cells: S. cerevisiae Y190 yeast two-hybrid reporter strain
T4 sequence (O49686 whole entry K59R/F108S): as the sequence (O49686 whole entry Y58H/K59R/V81I/F108A/S122G/F159L) above, with H58Y, I81V, A108S, G122S, L159F counted along it
T4 sequence (Q9CAJ0 23-511 partner): as the sequence (Q9CAJ0 23-511 partner) above
Outline: as §2

PYR1 K59R V164C = molecular target: T5, PYR1 K59R V164C (Arabidopsis thaliana, UniProt O49686, K59R/V164C); assay: Y2H Pocket Library Screen (HAB1, X-gal); type: cell-based
T5 construct: expressed in transfected cells; host or cells: S. cerevisiae Y190
T5 sequence (Q9CAJ0 23-511, stated change not applied): as the sequence (Q9CAJ0 23-511 partner) above
T5 sequence (O49686 whole entry K59R/V164C): as the sequence (O49686 whole entry Y58H/K59R/V81I/F108A/S122G/F159L) above, with H58Y, I81V, A108F, G122S, L159F, V164C counted along it
Outline: as §2

PYR1 K59R V164G = molecular target: T6, PYR1 K59R V164G (Arabidopsis thaliana, UniProt O49686, K59R/V164G); assay: Y2H Pocket Library Screen (HAB1, X-gal); type: cell-based
T6 construct: expressed in transfected cells; host or cells: S. cerevisiae Y190
T6 sequence (O49686 whole entry K59R/V164G): as the sequence (O49686 whole entry Y58H/K59R/V81I/F108A/S122G/F159L) above, with H58Y, I81V, A108F, G122S, L159F, V164G counted along it
T6 sequence (Q9CAJ0 23-511 partner): as the sequence (Q9CAJ0 23-511 partner) above
Outline: as §2

PYR1 K59R M158G = molecular target: T7, PYR1 K59R M158G (Arabidopsis thaliana, UniProt O49686, K59R/M158G); assay: Y2H Pocket Library Screen (HAB1, X-gal); type: cell-based
T7 construct: expressed in transfected cells; host or cells: S. cerevisiae Y190 two-hybrid reporter strain
T7 sequence (O49686 whole entry K59R/M158G): as the sequence (O49686 whole entry Y58H/K59R/V81I/F108A/S122G/F159L) above, with H58Y, I81V, A108F, G122S, M158G, L159F counted along it
T7 sequence (Q9CAJ0 23-511 partner): as the sequence (Q9CAJ0 23-511 partner) above
Outline: as §2

PYR1 K59R V83L = molecular target: T8, PYR1 K59R V83L (Arabidopsis thaliana, UniProt O49686, K59R/V83L); assay: Y2H Pocket Library Screen (HAB1, X-gal); type: cell-based
T8 construct: expressed in transfected cells; host or cells: S. cerevisiae Y190 yeast two-hybrid reporter strain
T8 sequence (O49686 whole entry K59R/V83L): as the sequence (O49686 whole entry Y58H/K59R/V81I/F108A/S122G/F159L) above, with H58Y, I81V, V83L, A108F, G122S, L159F counted along it
T8 sequence (Q9CAJ0 23-511, further chain): as the sequence (Q9CAJ0 23-511 partner) above
Outline: as §2

PYR1 K59R M158I = molecular target: T9, PYR1 K59R M158I (Arabidopsis thaliana, UniProt O49686, K59R/M158I); assay: Y2H Pocket Library Screen (HAB1, X-gal); type: cell-based
T9 construct: expressed in transfected cells; host or cells: S. cerevisiae Y190 two-hybrid reporter strain
T9 sequence (O49686 whole entry K59R/M158I): as the sequence (O49686 whole entry Y58H/K59R/V81I/F108A/S122G/F159L) above, with H58Y, I81V, A108F, G122S, M158I, L159F counted along it
T9 sequence (Q9CAJ0 23-511, further chain): as the sequence (Q9CAJ0 23-511 partner) above
Outline: as §2

PYR1 K59R M158S = molecular target: T10, PYR1 K59R M158S (Arabidopsis thaliana, UniProt O49686, K59R/M158S); assay: Y2H Pocket Library Screen (HAB1, X-gal); type: cell-based
T10 construct: expressed in transfected cells; host or cells: S. cerevisiae Y190 two-hybrid reporter strain
T10 sequence (O49686 whole entry K59R/M158S): as the sequence (O49686 whole entry Y58H/K59R/V81I/F108A/S122G/F159L) above, with H58Y, I81V, A108F, G122S, M158S, L159F counted along it
T10 sequence (Q9CAJ0 23-511 partner): as the sequence (Q9CAJ0 23-511 partner) above
Outline: as §2

PYR1 K59R V164Q = molecular target: T11, PYR1 K59R V164Q (Arabidopsis thaliana, UniProt O49686, K59R/V164Q); assay: Y2H Pocket Library Screen (HAB1, X-gal); type: cell-based
T11 construct: expressed in transfected cells; host or cells: S. cerevisiae Y190 two-hybrid reporter strain
T11 sequence (O49686 whole entry K59R/V164Q): as the sequence (O49686 whole entry Y58H/K59R/V81I/F108A/S122G/F159L) above, with H58Y, I81V, A108F, G122S, L159F, V164Q counted along it
T11 sequence (Q9CAJ0 23-511 partner): as the sequence (Q9CAJ0 23-511 partner) above
Outline: as §2

PYR1 K59R A160Y = molecular target: T12, PYR1 K59R A160Y (Arabidopsis thaliana, UniProt O49686, A160Y/K59R); assay: Y2H Pocket Library Screen (HAB1, X-gal); type: cell-based
T12 construct: expressed in transfected cells; host or cells: S. cerevisiae Y190
T12 sequence (O49686 whole entry K59R/A160Y): as the sequence (O49686 whole entry Y58H/K59R/V81I/F108A/S122G/F159L) above, with H58Y, I81V, A108F, G122S, L159F, A160Y counted along it
T12 sequence (Q9CAJ0 23-511 partner): as the sequence (Q9CAJ0 23-511 partner) above
Outline: as §2

Compound	leaf temperature effect of mandipropamid [1]	leaf temperature effect of mandipropamid (wild type plants)	interaction of 6×-His-GFP-PYR1^MANDI and GFP-HAB1 in planta [2]	leaf temperature [3]	Threshold (PYR1 K59R F108L)	Threshold (PYR1 K59R F108C)	Threshold (PYR1 K59R F108S)	Threshold (PYR1 K59R V164C)	Threshold (PYR1 K59R V164G)	Threshold (PYR1 K59R M158G)	Threshold (PYR1 K59R V83L)	Threshold (PYR1 K59R M158I)	Threshold (PYR1 K59R M158S)	Threshold (PYR1 K59R V164Q)	Threshold (PYR1 K59R A160Y)
C#CCOc1ccc(CCNC(=O)C(OCC#C)c2ccc(Cl)cc2)cc1OC (stereo not drawn) [Mandipropamid, mandipropamid]	not observed	not observed	mandipropamid-dependent physical interaction	increased leaf temperature	100 µM	100 µM	100 µM								
N#Cc1c(Cl)cccc1Cl [Dichlobenil, dichlobenil]								100 µM	100 µM	100 µM	100 µM	100 µM	100 µM	100 µM	100 µM
